Read-outs that look alike come from different tables or passages of the source.
Experiments:
[1] = molecular target: T1, JAK3 (Homo sapiens, UniProt P52333); experiment: JAK3 biochemical assay (ADP-GLO Kinase Assay); settings: for JAKs/HPK1 IC50 Ratio, B*: first testing facility
T1 construct: purchased Thermo fisher PV3855
In short: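 Human JAK3 (0.78 ng) with 0.2 μg/μL Poly(E4Y1) and 4 μM ATP in 40 mM Tris pH 7.5, 20 mM MgCl2, 0.1 mg/ml BSA, 50 μM DTT, 1% DMSO; 60 min at 25 °C. ADP formed read by ADP-Glo luminescence. 10-dose 3-fold series from 10 μM; IC50 by three-parameter logistic fit.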

[2] = molecular target: HPK1 (Homo sapiens, UniProt Q92918); experiment: HPK1 biochemical assay (ADP-GLO Kinase Assay)
In short: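 HPK1 (0.6 ng/μL final) activity was followed with MBP substrate and 10 μM ATP in Tris pH 7.5/MgCl2/BSA/DTT buffer, measured by ADP-Glo luminescence. Compounds were tested as 3-fold dilutions from 10 μM. IC50 came from a three-parameter logistic fit, with inhibition normalised to high/low controls.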

[3] = B*: testing performed in a first testing facility, read-out: JAK3 IC50 (nM) Relative, B*
[4] = ratio of JAK3 IC50 to HPK1 IC50
[5] = B*: testing performed in a first testing facility, read-out: HPK1 IC50 (nM) Relative, B*

Sequence of HPK1 (Q92918 whole entry): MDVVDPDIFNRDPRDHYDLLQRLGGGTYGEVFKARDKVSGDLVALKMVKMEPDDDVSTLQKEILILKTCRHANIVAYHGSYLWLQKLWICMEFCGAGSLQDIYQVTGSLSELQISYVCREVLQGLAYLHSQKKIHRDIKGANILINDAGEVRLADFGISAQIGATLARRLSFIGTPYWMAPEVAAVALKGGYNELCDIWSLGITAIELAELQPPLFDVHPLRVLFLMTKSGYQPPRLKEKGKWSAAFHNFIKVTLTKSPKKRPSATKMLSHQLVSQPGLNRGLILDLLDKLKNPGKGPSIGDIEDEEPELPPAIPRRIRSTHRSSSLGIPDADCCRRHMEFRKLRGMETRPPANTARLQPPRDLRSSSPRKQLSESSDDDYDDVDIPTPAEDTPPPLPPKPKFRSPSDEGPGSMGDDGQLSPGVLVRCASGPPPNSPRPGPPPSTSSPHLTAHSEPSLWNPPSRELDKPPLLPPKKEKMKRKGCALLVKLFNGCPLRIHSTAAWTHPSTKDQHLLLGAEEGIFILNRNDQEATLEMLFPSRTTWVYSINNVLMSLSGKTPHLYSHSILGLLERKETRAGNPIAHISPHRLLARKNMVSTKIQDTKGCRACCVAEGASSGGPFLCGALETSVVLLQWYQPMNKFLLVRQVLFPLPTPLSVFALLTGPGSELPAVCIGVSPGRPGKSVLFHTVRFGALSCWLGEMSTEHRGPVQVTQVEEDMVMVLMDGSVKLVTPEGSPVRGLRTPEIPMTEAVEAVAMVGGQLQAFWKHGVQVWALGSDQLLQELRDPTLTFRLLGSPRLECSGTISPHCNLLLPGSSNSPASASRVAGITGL
T1 sequence (P52333 781-1124 limits assumed): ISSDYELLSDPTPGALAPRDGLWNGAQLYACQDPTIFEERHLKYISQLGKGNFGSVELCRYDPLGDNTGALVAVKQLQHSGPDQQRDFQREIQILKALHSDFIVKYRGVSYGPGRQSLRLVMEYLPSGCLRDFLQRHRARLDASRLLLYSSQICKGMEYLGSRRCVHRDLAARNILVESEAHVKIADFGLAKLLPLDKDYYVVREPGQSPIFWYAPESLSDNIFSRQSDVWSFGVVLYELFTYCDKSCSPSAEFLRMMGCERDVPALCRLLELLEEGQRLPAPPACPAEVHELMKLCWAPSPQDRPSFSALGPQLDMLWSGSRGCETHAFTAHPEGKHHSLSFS

| Compound | IC50 [1, 3] | JAKs/HPK1 IC50 Ratio, B* [1, 4] | IC50 [2, 5] | IC50 ([1]; N*: testing performed in a second testing facility, read-out: JAK3 IC50 (nM) Relative, N*) | JAKs/HPK1 IC50 Ratio, N* ([1]; ratio of JAK3 IC50 to HPK1 IC50, second testing facility) | IC50 ([2]; N*: testing performed in a second testing facility, read-out: HPK1 IC50 (nM) Relative, N*) |
| --- | --- | --- | --- | --- | --- | --- |
| COc1cc2c(cc1Nc1ncc(Cl)c(N3CC(C(=O)O)c4ccc(F)cc43)n1)CN(C)CC2 (centres unmarked) [Example 105] | 100 to 500 nM | 140 | ≤ 100 nM |  |  |  |
| COc1cc2c(cc1Nc1ncc(Cl)c(-n3cc(CC(=O)O)c4cc(F)c(F)cc43)n1)CN(C)CC2 [Example 140] | 500 to 1000 nM | 783 | ≤ 100 nM |  |  |  |
| COc1cc2c(cc1Nc1ncc(C(F)(F)F)c(-n3ccc4ccccc43)n1)CN(C)CC2 [Example 10, N-(4-(1H-indol-1-yl)-5-(trifluoromethyl)pyrimidin-2-yl)-6-methoxy-2-methyl-1,2,3,4-tetrahydroisoquinolin-7-amine] | > 1000 nM | >298 | ≤ 100 nM |  |  |  |
| COc1cc2c(cc1Nc1ncc(Cl)c(N3CC(C(=O)O)C4(CCCCC4)C3)n1)CN(C)CC2 (centres unmarked) [Example 167, 2-(5-Chloro-2-((6-methoxy-2-methyl-1,2,3,4-tetrahydroisoquinolin-7-yl)amino)pyrimidin-4-yl)-2-azaspiro[4.5]decane-4-carboxylic acid] | > 1000 nM | 995 | ≤ 100 nM |  |  |  |
| COc1cc2c(cc1Nc1ncc(C#N)c(N3CC(C(=O)O)c4ccccc43)n1)CN(C)CC2 (centres unmarked) [Example 110, 1-(5-Cyano-2-((6-methoxy-2-methyl-1,2,3,4-tetrahydroisoquinolin-7-yl)amino)pyrimidin-4-yl)indoline-3-carboxylic acid] | > 1000 nM | 477 | ≤ 100 nM |  |  |  |
| COc1cc2c(cc1Nc1ncc(Cl)c(N3CCc4c(C(F)F)cccc43)n1)CN(C)CC2 [Example 92, N-(5-chloro-4-(4-(difluoromethyl)indolin-1-yl)pyrimidin-2-yl)-6-methoxy-2-methyl-1,2,3,4-tetrahydroisoquinolin-7-amine] | > 1000 nM | 393 | ≤ 100 nM |  |  |  |
| COc1cc2c(cc1Nc1ncc(Cl)c(-n3cc(CC(=O)O)c4ccc(F)cc43)n1)CN(C)CC2 [Example 139] | 100 to 500 nM | 520 | ≤ 100 nM |  |  |  |
| COc1cc2c(cc1Nc1ncc(Cl)c(-n3cc(CC(=O)NCC#N)c4ccccc43)n1)CN(C)CC2 [Example 137] | > 1000 nM | 1304 | ≤ 100 nM |  |  |  |
| COc1cc2c(cc1Nc1ncc(Cl)c(-n3cc(Cc4nn[nH]n4)c4ccccc43)n1)CN(C)CC2 [Example 135, N-(4-(3-((2H-tetrazol-5-yl)methyl)-1H-indol-1-yl)-5-chloropyrimidin-2-yl)-6-methoxy-2-methyl-1,2,3,4-tetrahydroisoquinolin-7-amine] | 500 to 1000 nM | 269 | ≤ 100 nM |  |  |  |
| CN1CCc2cc(Cl)c(Nc3ncc(Cl)c(N4CCc5ccccc54)n3)cc2C1 [Example 15, 6-Chloro-N-(5-chloro-4-(indolin-1-yl)pyrimidin-2-yl)-2-methyl-1,2,3,4-tetrahydroisoquinolin-7-amine] | > 1000 nM | 174 | ≤ 100 nM |  |  |  |
| COc1cc2c(cc1Nc1ncc(Cl)c(-c3nn(CC(=O)O)c4ccccc34)n1)CN(C)CC2 [Example 162, 2-(3-(5-Chloro-2-((6-methoxy-2-methyl-1,2,3,4-tetrahydroisoquinolin-7-yl)amino)pyrimidin-4-yl)-1H-indazol-1-yl)acetic acid] | > 1000 nM | 415 | ≤ 100 nM |  |  |  |
| COC(=O)C1CN(c2nc(Nc3cc4c(cc3OC)CCN(C)C4)ncc2C(F)F)c2ccccc21 (centres unmarked) [Example 112] | > 1000 nM | >3309 | ≤ 100 nM |  |  |  |
| COc1cc2c(cc1Nc1ncc(Cl)c(-n3cc(C(C)C(=O)O)c4ccccc43)n1)CN(C)CC2 (centres unmarked) [Example 142] | 500 to 1000 nM | 117 | ≤ 100 nM |  |  |  |
| COc1ccc2c(c1)N(c1nc(Nc3cc4c(cc3OC)CCN(C)C4)ncc1Cl)CC2C(=O)O (centres unmarked) [Example 107, 1-(5-Chloro-2-((6-methoxy-2-methyl-1,2,3,4-tetrahydroisoquinolin-7-yl)amino)pyrimidin-4-yl)-6-methoxyindoline-3-carboxylic acid] | > 1000 nM | 2200 | ≤ 100 nM |  |  |  |
| COc1cc2c(cc1Nc1ncc(Cl)c(N3CCc4ncccc43)n1)CN(C)CC2 [Example 16, N-(5-chloro-4-(2,3-dihydro-1H-pyrrolo[3,2-b]pyridin-1-yl)pyrimidin-2-yl)-6-methoxy-2-methyl-1,2,3,4-tetrahydroisoquinolin-7-amine] | > 1000 nM |  | ≤ 100 nM |  |  |  |
| COc1cc2c(cc1Nc1ncc(Cl)c(-n3nc(C(=O)O)c4ccccc43)n1)CN(C)CC2 [Example 113] | > 1000 nM | 293 | ≤ 100 nM |  |  |  |

The remaining lines, values ahead:

| IC50 [1, 3] | JAKs/HPK1 IC50 Ratio, B* [1, 4] | IC50 [2, 5] | IC50 ([1]; N*: testing performed in a second testing facility, read-out: JAK3 IC50 (nM) Relative, N*) | JAKs/HPK1 IC50 Ratio, N* ([1]; ratio of JAK3 IC50 to HPK1 IC50, second testing facility) | IC50 ([2]; N*: testing performed in a second testing facility, read-out: HPK1 IC50 (nM) Relative, N*) | Compound |
| --- | --- | --- | --- | --- | --- | --- |
| ≤ 100 nM | 29 | ≤ 100 nM |  |  |  | CN1CCc2cc(F)c(Nc3ncc(Cl)c(N4CC(C)(CC(=O)O)c5ccccc54)n3)cc2C1 (centres unmarked) [Example 156] |
| ≤ 100 nM | 97 | ≤ 100 nM |  |  |  | COc1cc2c(cc1Nc1ncc(Cl)c(N3CC(C)(CC(=O)O)c4ccccc43)n1)CNCC2 (centres unmarked) [Example 160, 2-(1-(5-Chloro-2-((6-methoxy-1,2,3,4-tetrahydroisoquinolin-7-yl)amino)pyrimidin-4-yl)-3-methylindolin-3-yl)acetic acid methanesulfonic acid] |
| 100 to 500 nM | 176 | ≤ 100 nM |  |  |  | CCN1CCc2cc(OC)c(Nc3ncc(Cl)c(N4CC(C)(CC(=O)O)c5ccccc54)n3)cc2C1 (centres unmarked) [Example 157, 2-(1-(5-Chloro-2-((2-ethyl-6-methoxy-1,2,3,4-tetrahydroisoquinolin-7-yl)amino)pyrimidin-4-yl)-3-methylindolin-3-yl)acetic acid] |
| ≤ 100 nM | 90 | ≤ 100 nM |  |  |  | COc1cc2c(cc1Nc1ncc(Cl)c(N3CC(C)(CC(=O)O)c4ccccc43)n1)CN(C)CC2 (centres unmarked) [Example 146] |
| > 1000 nM | 132 | ≤ 100 nM |  |  |  | COc1cc2c(cc1Nc1ncc(Cl)c(N3CC(C)(CC(=O)O)c4ccccc43)n1)CN(C)CC2 (single isomer, unassigned) [Example 147] |
| > 1000 nM | 800 | ≤ 100 nM |  |  |  | CNC(=O)C1CN(c2nc(Nc3cc4c(cc3OC)CCN(C)C4)ncc2Cl)c2ccccc21 (centres unmarked) [Example 97, 1-(5-Chloro-2-((6-methoxy-2-methyl-1,2,3,4-tetrahydroisoquinolin-7-yl)amino)pyrimidin-4-yl)-N-methylindoline-3-carboxamide] |
| > 1000 nM | >2603 | ≤ 100 nM |  |  |  | COc1cc2c(cc1Nc1ncc(Cl)c(N3CC(C(=O)N(C)O)c4ccccc43)n1)CN(C)CC2 (centres unmarked) [Example 102] |
| 100 to 500 nM | 192 | ≤ 100 nM |  |  |  | COc1cc2c(cc1Nc1ncc(Cl)c(N3CC(C)(CC(=O)O)c4ccccc43)n1)CN(C(C)C)CC2 (centres unmarked) [Example 158, 2-(1-(5-Chloro-2-((2-isopropyl-6-methoxy-1,2,3,4-tetrahydroisoquinolin-7-yl)amino)pyrimidin-4-yl)-3-methylindolin-3-yl)acetic acid] |
| 100 to 500 nM | 253 | ≤ 100 nM |  |  |  | COc1cc2c(cc1Nc1ncc(Cl)c(N3CC(C)(CC(=O)O)c4ccc(F)cc43)n1)CN(C)CC2 (single isomer, unassigned) [Example 152] |
| ≤ 100 nM | 10 | ≤ 100 nM |  |  |  | COc1cc2c(cc1Nc1ncc(Cl)c(N3C[C@@](C)(C(=O)O)c4ccccc43)n1)CN(C)CC2 (single isomer, unassigned) [Example 119] |
| ≤ 100 nM | 50 | ≤ 100 nM |  |  |  | COc1cc2c(cc1Nc1ncc(Cl)c(N3CC(C)(C#N)c4ccccc43)n1)CN(C)CC2 (centres unmarked) [Example 121, 1-(5-Chloro-2-((6-methoxy-2-methyl-1,2,3,4-tetrahydroisoquinolin-7-yl)amino)pyrimidin-4-yl)-3-methylindoline-3-carbonitrile] |
| > 1000 nM | 337 | ≤ 100 nM | 100 to 500 nM | 601 | ≤ 100 nM | COc1cc2c(cc1Nc1ncc(Cl)c(N3CCc4ccccc43)n1)CN(C)CC2 [Example 4, N-(5-Chloro-4-(indolin-1-yl)pyrimidin-2-yl)-6-methoxy-2-methyl-1,2,3,4-tetrahydroisoquinolin-7-amine] |
| ≤ 100 nM | 80 | ≤ 100 nM |  |  |  | COc1cc2c(cc1Nc1ncc(Cl)c(N3CC(C(=O)O)c4ccccc43)n1)CN(C)CC2 (single isomer, unassigned) [Example 96] |
| > 1000 nM | 541 | ≤ 100 nM |  |  |  | COc1cc2c(cc1Nc1ncc(Cl)c(-n3nc(CC(=O)O)c4ccccc43)n1)CN(C)CC2 [Example 141] |
| ≤ 100 nM | 120 | ≤ 100 nM |  |  |  | COc1cc2c(cc1Nc1ncc(Cl)c(N3CC(C)(C(N)=O)c4ccccc43)n1)CN(C)CC2 (centres unmarked) [Example 120, 1-(5-Chloro-2-((6-methoxy-2-methyl-1,2,3,4-tetrahydroisoquinolin-7-yl)amino)pyrimidin-4-yl)-3-methylindoline-3-carboxamide] |

Source: US12612424B2, “HPK1 inhibitors and uses thereof” (Regor Pharmaceuticals, Inc., priority 2019, dated 2026)
